Test results published in article PMC4891189 (Pharmaceutical research, 2015).
Entries after “also recorded” stand apart in the source; their conditions may differ. Each block holds one compound with its values, some of them ahead of it.

Columns and labels:
[1] = system: MDCK-MDR1 cell monolayers; assay: Bidirectional transport across MDCK-MDR1 cell monolayers; format: in vitro ADME, canine
P-gp (MDR1) = assay: as above; format: in vitro ADME, canine; conditions: dog
[2] = PAMPA permeability at different pH
P-gp [3] = assay: Bidirectional transport across Caco-2 cell monolayers; conditions: human
hemodynamic effects = conditions: healthy subjects ref 8; cited from earlier work
beta-blocking activity = conditions: animal studies ref 7; cited from earlier work
rat jejunum [4] = system: rat jejunum
Caco-2 cell monolayers = assay: Bidirectional transport across Caco-2 cell monolayers; conditions: 50 µM
rat jejunum [5] = assay: Transport study in rat jejunum Ussing chamber; conditions: after 90 min, leakage indicator
[6] = cited from earlier work
[7] = oral administration, after first-pass metabolism; cited from earlier work
human jejunum = conditions: single-pass perfusion, healthy volunteers ref 9; cited from earlier work
P-gp [8] = conditions: mdr1a (−/−) mice intestine ref 29; cited from earlier work
[9] = MDCK-MDR1, pH 7.4, with GG918 0.5 µM
[10] = Caco-2, pH 7.4, with GG918 0.5 µM
[11] = 50 µM, MDCK-MDR1, pH 7.4, GG918 0.5 µM

Efflux Ratio ([1]; Digoxin 0.01 µM, MDR1-MDCK cells, +GG918 0.5 µM): 1.52±0.16
Papp A→B at 120 min, 0.01 µM (P-gp (MDR1); MDCK-MDR1, pH 7.4): 0.26 ± 0.02 ×10⁻⁶ cm/s
Papp B→A at 120 min, 0.01 µM (P-gp (MDR1); MDCK-MDR1, pH 7.4): 2 ± 0.01 ×10⁻⁶ cm/s
Papp A→B at 120 min, 0.01 µM (P-gp (MDR1); [9]): 0.41 ± 0.1 ×10⁻⁶ cm/s
Papp B→A at 120 min, 0.01 µM (P-gp (MDR1); [9]): 0.67 ± 0.06 ×10⁻⁶ cm/s
efflux ratio at 120 min, 0.01 µM (P-gp (MDR1); MDCK-MDR1, pH 7.4, with GG918 0.5 µM, Efflux Ratio, Digoxin 0.01 µM, MDR1-MDCK cells, +GG918 0.5 µM): < 2
Papp A→B at 120 min, 0.01 µM (P-gp [3]; Caco-2, pH 7.4): 0.64 ± 0.03 ×10⁻⁶ cm/s
Papp B→A at 120 min, 0.01 µM (P-gp [3]; Caco-2, pH 7.4): 1.64 ± 0.13 ×10⁻⁶ cm/s
efflux ratio at 120 min, 0.01 µM (P-gp [3]; Caco-2, pH 7.4): 2.57 ± 0.33
Papp A→B at 120 min, 0.01 µM (P-gp [3]; [10]): 1.17 ± 0.07 ×10⁻⁶ cm/s
Papp B→A at 120 min, 0.01 µM (P-gp [3]; [10]): 1.19 ± 0.05 ×10⁻⁶ cm/s
efflux ratio at 120 min, 0.01 µM (P-gp [3]; [10]): < 2
Compound: C[C@H]1O[C@@H](O[C@H]2[C@@H](O)C[C@H](O[C@H]3[C@@H](O)C[C@H](O[C@H]4CC[C@@]5(C)[C@H](CC[C@@H]6[C@@H]5C[C@@H](O)[C@]5(C)[C@@H](C7=CC(=O)OC7)CC[C@]65O)C4)O[C@@H]3C)O[C@@H]2C)C[C@H](O)[C@@H]1O [Digoxin, digoxin]
effect of apical pH on permeability ([2]; 5 µM digoxin): no statistical differences; also recorded: did not show different permeability results

Compound: CC(C)NC[C@@H](O)COc1cccc2ccccc12 [R-propranolol]
hemodynamic effects (hemodynamic effects): ineffective

Compound: CC(C)NCC(O)COc1cccc2ccccc12 (centres unmarked) [S-propranolol]
effect of GG918 on basolateral and apical permeabilities ([1]; 25 nM, MDCK-MDR1, pH 7.4 on both sides): no effect of GG918 was observed
Papp, A->B in the presence of GG918 ([1]; 50 µM, MDCK-MDR1, apical pH 6.5): decreased significantly
Papp, A→B in the absence or presence of GG918 [1, 11]: unexplained significant difference
basolateral to apical efflux in the absence or presence of GG918 [1, 11]: no significant differences
beta-blocking activity, times more potent than R-propranolol (beta-blocking activity): 100 times
effect of verapamil on Papp in the absorptive direction (rat jejunum [4]; not told): did not alter
change of Papp mucosal to serosal (absorption) with mucosal pH (rat jejunum [4]; pH 6.5): statistically significant decrease
effect of mucosal pH on serosal to mucosal permeability (secretion) (rat jejunum [4]; pH 6.5): didn’t significantly affect
mass retention ([2]; 25 nM): 58±4%
mass retention ([2]; 50 µM): 12%±1
permeability compared with high permeability standard labetalol ([2]; 50 µM each, pH 7.4 both sides): higher permeability than 50 µM labetalol
simulated efflux ratio (Papp, B->A/ Papp, A->B) ([2]; 50 µM, apical pH 6.5, basolateral pH 7.4): 3.39
simulated efflux ratio (Papp, B->A/ Papp, A->B) ([2]; 50 µM, apical pH 7.4, basolateral pH 7.4): 1
Papp, A->B ([2]; 50 µM, pH 6.5→pH 7.4): 8.1±0.3 × 10^−6 cm/sec
simulated Papp, B->A ([2]; 50 µM, pH 7.4→pH 6.5): 27.3±0.4 × 10^−6 cm/sec
Papp ([2]; 50 µM, pH 7.4→pH 7.4): 19.2±2.6 × 10^−6 cm/sec
mass retention ([2]; 100 µM): 8%±1
pH dependent transcellular permeability at 100 µM compared with 50 µM ([2]; 100 µM): almost identical to that observed at 50 µM
change of Papp, A->B as apical pH changed from 7.4 to 6.5 (Caco-2 cell monolayers; Caco-2): markedly decreased
change of Papp, B->A as apical pH changed from 7.4 to 6.5 (Caco-2 cell monolayers; Caco-2): significantly increased
Papp, A->B in the presence of GG918 (Caco-2 cell monolayers; Caco-2, apical pH 6.5): small but significant increase
basolateral to apical efflux in the presence or absence of GG918 (Caco-2 cell monolayers; Caco-2, apical pH 6.5): no significant differences

permeated from the mucosal to serosal side (rat jejunum [5]): less than 1%
Compound: O=S1(=O)OC(c2ccc(O)cc2)(c2ccc(O)cc2)c2ccccc21 [phenol red]

Compound: CC(C)NCC(O)COc1cccc2ccccc12.Cl (centres unmarked) [propranolol HCl]
dose number [6]: 0.006

Compound: CC(C)NCC(O)COc1cccc2ccccc12 (centres unmarked) [propranolol]
dose reaching the systemic circulation unchanged [7]: 25%
effective permeability (human jejunum): 280 ×10⁻⁶ cm/s
permeability, P-gp expressed vs knocked out (P-gp [8]): not influenced
